Earlier results in US20180153872A1, “HETEROARYL CARBONITRILES FOR THE TREATMENT OF DISEASE” (OPKO Health, Inc., priority 2015, published 2018).

target: NK1 receptor (Homo sapiens, UniProt P25103); settings: Table I compounds; cited from earlier work
Sequence (P25103 whole entry, species assumed): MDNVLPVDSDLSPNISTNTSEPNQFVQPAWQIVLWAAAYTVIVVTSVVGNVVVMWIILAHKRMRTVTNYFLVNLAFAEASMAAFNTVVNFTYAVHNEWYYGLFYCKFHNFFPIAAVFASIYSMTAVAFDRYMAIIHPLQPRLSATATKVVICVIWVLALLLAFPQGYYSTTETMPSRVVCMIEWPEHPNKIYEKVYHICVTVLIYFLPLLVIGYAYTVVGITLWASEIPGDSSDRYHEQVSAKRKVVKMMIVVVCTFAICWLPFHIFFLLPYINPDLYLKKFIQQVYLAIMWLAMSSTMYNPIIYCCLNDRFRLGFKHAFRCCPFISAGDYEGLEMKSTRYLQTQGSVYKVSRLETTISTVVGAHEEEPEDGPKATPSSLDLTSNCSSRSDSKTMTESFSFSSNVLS

**Q.** For `C[C@@H](OC[C@@]1(c2ccccc2)CCC(CO)(n2cnnc2)CN1)c1cc(C(F)(F)F)cc(C(F)(F)F)c1` (stereo partly drawn) [Compound 12], which Ki is on record?
**A.** 0.05 nM

**Q.** For `C[C@@H](OC[C@@]1(c2ccccc2)CC[C@](CNS(C)(=O)=O)(n2cn[nH]c2=O)CN1)c1cc(C(F)(F)F)cc(C(F)(F)F)c1` [Compound 15], which Ki is on record?
**A.** 0.13 nM

**Q.** For `C[C@@H](OC[C@@]1(c2ccccc2)CCC(C#N)(N2CCC2=O)CN1)c1cc(C(F)(F)F)cc(C(F)(F)F)c1` (stereo partly drawn) [Compound 9], which Ki is on record?
**A.** 0.18 nM

**Q.** For `CCC(=O)C1(n2cn[nH]c2=O)CC[C@@](CO[C@H](C)c2cc(C(F)(F)F)cc(C(F)(F)F)c2)(c2ccccc2)NC1` (stereo partly drawn) [Compound 19], which Ki is on record?
**A.** 0.1 nM

**Q.** For `C[C@@H](OC[C@@]1(c2ccccc2)CCC(C(N)=O)(n2cnnc2)CN1)c1cc(C(F)(F)F)cc(C(F)(F)F)c1` (stereo partly drawn) [Compound 10], which Ki is on record?
**A.** 0.1 nM

**Q.** Which Ki does the source give for `CC(=NO)C1(n2cn[nH]c2=O)CCC(COC(C)c2cc(C(F)(F)F)cc(C(F)(F)F)c2)(c2ccccc2)NC1` (stereo not drawn) [Compound 54] here?
**A.** 0.12 nM

**Q.** Which Ki does the source give for `C[C@@H](OC[C@@]1(c2ccccc2)CCC(CO)(n2cn[nH]c2=O)CN1)c1cc(C(F)(F)F)cc(C(F)(F)F)c1` (stereo partly drawn) [Compound 23] here?
**A.** 0.12 nM

**Q.** Which Ki does the source give for `C[C@@H](OC[C@@]1(c2ccccc2)CCC(C#N)(N2CCOC2=O)CN1)c1cc(C(F)(F)F)cc(C(F)(F)F)c1` (stereo partly drawn) [Compound 2] here?
**A.** 0.12 nM

system: pruritus; settings: several patients with pruritic drug reactions to antineoplastic drugs; cited from earlier work

**Q.** With `C[C@@H](O[C@H]1OCCN(Cc2n[nH]c(=O)[nH]2)[C@H]1c1ccc(F)cc1)c1cc(C(F)(F)F)cc(C(F)(F)F)c1` [aprepitant] as the compound, how does the “pruritus on the visual analogue scale (VAS)” value read?
**A.** decrease in pruritus on the visual analogue scale
